Residue numbers refer to the chain shown, from its start. One block for each molecule: values may come before it.
Key:
[1] = system: human breast cancer cells BT474; assay: In vivo antitumor effect of anti-CAPRIN-1 antibody and etoposide in BT474 cancer-bearing mice (Comparative Example 1); design: species or system NOD-SCID mice; conditions: etoposide alone, four times, day 55 after bearing cancer
Method: Next, an in vivo antitumor effect in a cancer-bearing mouse by a combined use of the anti-CAPRIN-1 antibody (anti-CAPRIN-1 humanized antibody #1) produced in Example 1 and etoposide (a topoisomerase inhibitor (topoisomerase II inhibitor) other than topotecan) was evaluated.
Specifically, the antitumor effect of the combination of the anti-CAPRIN-1 antibody and etoposide was studied using NOD-SCID mice in which human-derived cancer cells expressing CAPRIN-1 protein were subcutaneously transplanted. Human breast cancer cells BT474 were subcutaneously transplanted at 2×10^7 cells per mouse as a mixture with Matrigel (Sigma) and allowed to grow until a tumor became approximately 190 to 192 mm^3 to prepare cancer-bearing mice. […]
For a comparative control group, the same dose of the same anti-CAPRIN-1 antibody as above was administered once a week to cancer-bearing mice. […] After the start of administration, the sizes of cancers in the cancer-bearing mice were measured over time using calipers. The tumor volume of each individual was calculated according to a standard method using a calculation formula: (Length of the major axis of the tumor)×(Length of the minor axis of the tumor)^2×0.5, and the average of the treated group was calculated.

[2] = system: human breast cancer cells BT474; assay: In vivo antitumor effect of anti-CAPRIN-1 antibody and topotecan in BT474 cancer-bearing mice; design: species or system NOD-SCID mice; conditions: day 56 after bearing cancer; for tumor volume, assuming that the tumor volume of the negative control was 100%: topotecan alone, four times
Method: An in vivo antitumor effect in a cancer-bearing mouse by a combined use of the anti-CAPRIN-1 antibody (anti-CAPRIN-1 humanized antibody #1) produced in Example 1 and topotecan was evaluated.
Specifically, the antitumor effect of the combined use of the anti-CAPRIN-1 antibody and topotecan according to the present invention was studied using NOD-SCID mice in which human-derived cancer cells expressing CAPRIN-1 protein were subcutaneously transplanted. Human breast cancer cells BT474 were subcutaneously transplanted at 2×10^7 cells per mouse as a mixture with Matrigel (Sigma) and allowed to grow until a tumor became approximately 154 to 155 mm^3 to prepare cancer-bearing mice. The cancer cells BT474 express CAPRIN-1 protein on cell membrane surfaces, and the anti-CAPRIN-1 antibodies produced in Example 1 were confirmed to react with a portion of CAPRIN-1 present on the cell membrane surfaces. Each anti-CAPRIN-1 antibody produced in Example 1 was administered at 10 mg/kg once a week, four times in total, to the tail veins of eight cancer-bearing mice described above. To the same mice, a low dose (3 mg/kg) or a high dose (10 mg/kg) of topotecan was administered once every four days, four times in total.
For a comparative control group, the same dose of the same anti-CAPRIN-1 antibody as above was administered once a week to cancer-bearing mice. Furthermore, for another comparative control group, a low dose (3 mg/kg) or a high dose (10 mg/kg) of topotecan was administered to other cancer-bearing mouse individuals at the same administration intervals. Cancer-bearing mice in a non-treatment group were used as negative controls. After the start of administration, the sizes of cancers in the cancer-bearing mice were measured over time using calipers. The tumor volume of each individual was calculated according to a standard method using a calculation formula: (Length of the major axis of the tumor)×(Length of the minor axis of the tumor)^2×0.5, and the average of the treated group was calculated.

[3] = platinum-insensitive patient, cited from earlier work
[4] = biological target: T1, human CAPRIN-1 protein expressed on cell membrane surfaces of human cancer cells (human, UniProt Q14444 2-709); assay: flow cytometry on cancer cells expressing CAPRIN-1
T1 construct: whole, on cells; only a portion of CAPRIN-1 is said to be on the membrane surface
T1 sequence (looked up): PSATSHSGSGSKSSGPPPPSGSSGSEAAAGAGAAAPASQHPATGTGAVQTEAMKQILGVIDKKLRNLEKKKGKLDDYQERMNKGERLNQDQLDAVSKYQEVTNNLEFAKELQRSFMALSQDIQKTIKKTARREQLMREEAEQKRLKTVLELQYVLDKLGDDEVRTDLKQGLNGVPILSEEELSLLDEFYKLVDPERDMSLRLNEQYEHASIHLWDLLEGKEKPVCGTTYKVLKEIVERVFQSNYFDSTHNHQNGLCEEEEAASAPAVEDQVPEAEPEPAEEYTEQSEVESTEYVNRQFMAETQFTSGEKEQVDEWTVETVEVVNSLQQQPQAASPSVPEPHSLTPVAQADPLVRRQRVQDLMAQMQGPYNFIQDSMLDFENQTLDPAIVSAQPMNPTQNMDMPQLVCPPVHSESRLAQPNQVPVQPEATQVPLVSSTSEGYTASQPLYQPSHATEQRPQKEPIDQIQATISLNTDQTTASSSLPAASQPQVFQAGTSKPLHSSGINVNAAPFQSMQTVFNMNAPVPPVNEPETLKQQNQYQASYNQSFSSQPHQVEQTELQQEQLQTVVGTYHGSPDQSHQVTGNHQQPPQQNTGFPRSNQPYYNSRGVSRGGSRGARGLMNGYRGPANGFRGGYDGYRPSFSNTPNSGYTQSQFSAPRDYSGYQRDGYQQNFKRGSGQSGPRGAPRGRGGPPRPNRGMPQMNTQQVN

Molecule: COc1cc([C@@H]2c3cc4c(cc3[C@@H](O[C@@H]3O[C@@H]5CO[C@@H](C)O[C@H]5[C@H](O)[C@H]3O)[C@H]3COC(=O)[C@H]23)OCO4)cc(OC)c1O [etoposide]
tumor volume, assuming that the tumor volume of the negative control was 100% ([1]; high dose 15 mg/kg once every four days): 79% | tumor volume, assuming that the tumor volume of the negative control was 100% ([1]; low dose 5 mg/kg once every four days): 92%

Molecule: CC[C@@]1(O)C(=O)OCc2c1cc1n(c2=O)Cc2cc3c(CN(C)C)c(O)ccc3nc2-1 [topotecan]
tumor volume compared to that at the start of the administration ([2]; antibody 10 mg/kg, topotecan low (3 mg/kg) and high (10 mg/kg) dose): increased | tumor volume, assuming that the tumor volume of the negative control was 100% ([2]; high dose 10 mg/kg once every four days): 16% | tumor volume, assuming that the tumor volume of the negative control was 100% ([2]; low dose 3 mg/kg once every four days): 33%

Molecule: bevacizumab
PFS ([3]; bevacizumab combined with a chemotherapeutic versus monochemotherapy): 6.7 months | OS compared with monochemotherapy ([3]; bevacizumab combined with a chemotherapeutic): no significant difference

binding result [4]: binds
B1: anti-CAPRIN-1 antibody (c) (antibody, V domains shown)
VH: AVTLDESGGGLQTPGGGLSLVCKASGFTFSSFDMGWVRQAPGKGLEFVAQINDAGSRTWYATAVKGRATISRDNGQTTVRLQLNNLRAEDTGTYYCTRGSGYVGAGAIDAWGHGTEVIVS
VL: AALTQPSSVSANPGETVKITCSGGSGYYGWYQQQKSPGSAPVTVIYQNDKRPSDIPSRFSGSGSGSTNTLTITGVQAEDEAVYFCGRYDSTDSGIFGAGTTLTVL

binding result [4]: binds
B2: anti-CAPRIN-1 antibody (a) (antibody, V domains shown)
VH: AVTLDESGGGLQMSRGGLSLVCKASGFDFSSYQMNWIRQAPGKGLEFVAAINKFGNSTGHGAAVKGRVTISRDNGQSTVRLQLNNLRAEDTAIYFCTKHAYGYCGSGTWCAAGEIDAWGHGTEVIVSS
VL: QAASTQPSSVSANPGETVEITCSGGGSYSYGWFQQKSPGSAPVTVIYYNNKRPSDIPSRFSGSKSGSTGTLTITGVQADDEAVYYCGSGDSTDTAVFGAGTTLTVLG

binding result [4]: binds
B3: anti-CAPRIN-1 antibody (ai) (antibody, V domains shown)
VH: EVQLVESGGGLVQPGGSLRLSCAASGFSLSSHSLGWVRQAPGKGLEWIGDIRSGGSAYYANWAKGRFTISRDNSKNTLYLQMNSLRAEDTAVYFCTRTNGPSDLTNRLDLWGQGTLVTVSS
VL: EIVLTQSPSSLSASVGDRVTINCQASQSLYNNENLAWFQQKPGKVPKRLIYGASTLASGVSSRFSGSGSGTEFTLTISNLQPEDFATYYCLGEFSCGSADCFAFGGGTKVEIK

binding result [4]: binds
B4: anti-CAPRIN-1 antibody (ak) (antibody, V domains shown)
VH: B3 VH
VL: B3 VL with I2Q, T87I

binding result [4]: binds
B5: anti-CAPRIN-1 antibody (aj) (antibody, V domains shown)
VH: B3 VH with F94Y
VL: B3 VL
